Laboratory results as given in patent US20150329558A1, “FUSED HETEROCYCLIC COMPOUNDS AS ION CHANNEL MODULATORS” (Gilead Sciences, Inc., priority 2011, published 2015).
Several values for one entry are separate records, joined by “and”; a condition that tells them apart may be missing. Equal values may be shown once. Read-outs that look alike come from different tables or passages of the source.

How the values were obtained:
[1] = Microsomal stability assay, human; format: in vitro ADME; conditions: metabolic stability, human liver microsomes 0.5 mg/mL, substrate 3 uM
Outline: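 Liver microsomes at 0.5 mg/mL protein in 100 mM KPO4 buffer, incubated with 3 uM compound and NADPH-regenerating system, run in duplicate. Samples taken at 2, 12, 25, 45 and 65 min and quenched in MeOH/ACN/water before analysis.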

[2] = biological target: wild-type human cardiac sodium channel, hNav1.5 (late INa) (Homo sapiens, UniProt Q14524); assay: Late INa screening assay (QPatch whole cell patch clamp); format: cell-based
Chain of wild-type human cardiac sodium channel, hNav1.5 (late INa) (Q14524 whole entry): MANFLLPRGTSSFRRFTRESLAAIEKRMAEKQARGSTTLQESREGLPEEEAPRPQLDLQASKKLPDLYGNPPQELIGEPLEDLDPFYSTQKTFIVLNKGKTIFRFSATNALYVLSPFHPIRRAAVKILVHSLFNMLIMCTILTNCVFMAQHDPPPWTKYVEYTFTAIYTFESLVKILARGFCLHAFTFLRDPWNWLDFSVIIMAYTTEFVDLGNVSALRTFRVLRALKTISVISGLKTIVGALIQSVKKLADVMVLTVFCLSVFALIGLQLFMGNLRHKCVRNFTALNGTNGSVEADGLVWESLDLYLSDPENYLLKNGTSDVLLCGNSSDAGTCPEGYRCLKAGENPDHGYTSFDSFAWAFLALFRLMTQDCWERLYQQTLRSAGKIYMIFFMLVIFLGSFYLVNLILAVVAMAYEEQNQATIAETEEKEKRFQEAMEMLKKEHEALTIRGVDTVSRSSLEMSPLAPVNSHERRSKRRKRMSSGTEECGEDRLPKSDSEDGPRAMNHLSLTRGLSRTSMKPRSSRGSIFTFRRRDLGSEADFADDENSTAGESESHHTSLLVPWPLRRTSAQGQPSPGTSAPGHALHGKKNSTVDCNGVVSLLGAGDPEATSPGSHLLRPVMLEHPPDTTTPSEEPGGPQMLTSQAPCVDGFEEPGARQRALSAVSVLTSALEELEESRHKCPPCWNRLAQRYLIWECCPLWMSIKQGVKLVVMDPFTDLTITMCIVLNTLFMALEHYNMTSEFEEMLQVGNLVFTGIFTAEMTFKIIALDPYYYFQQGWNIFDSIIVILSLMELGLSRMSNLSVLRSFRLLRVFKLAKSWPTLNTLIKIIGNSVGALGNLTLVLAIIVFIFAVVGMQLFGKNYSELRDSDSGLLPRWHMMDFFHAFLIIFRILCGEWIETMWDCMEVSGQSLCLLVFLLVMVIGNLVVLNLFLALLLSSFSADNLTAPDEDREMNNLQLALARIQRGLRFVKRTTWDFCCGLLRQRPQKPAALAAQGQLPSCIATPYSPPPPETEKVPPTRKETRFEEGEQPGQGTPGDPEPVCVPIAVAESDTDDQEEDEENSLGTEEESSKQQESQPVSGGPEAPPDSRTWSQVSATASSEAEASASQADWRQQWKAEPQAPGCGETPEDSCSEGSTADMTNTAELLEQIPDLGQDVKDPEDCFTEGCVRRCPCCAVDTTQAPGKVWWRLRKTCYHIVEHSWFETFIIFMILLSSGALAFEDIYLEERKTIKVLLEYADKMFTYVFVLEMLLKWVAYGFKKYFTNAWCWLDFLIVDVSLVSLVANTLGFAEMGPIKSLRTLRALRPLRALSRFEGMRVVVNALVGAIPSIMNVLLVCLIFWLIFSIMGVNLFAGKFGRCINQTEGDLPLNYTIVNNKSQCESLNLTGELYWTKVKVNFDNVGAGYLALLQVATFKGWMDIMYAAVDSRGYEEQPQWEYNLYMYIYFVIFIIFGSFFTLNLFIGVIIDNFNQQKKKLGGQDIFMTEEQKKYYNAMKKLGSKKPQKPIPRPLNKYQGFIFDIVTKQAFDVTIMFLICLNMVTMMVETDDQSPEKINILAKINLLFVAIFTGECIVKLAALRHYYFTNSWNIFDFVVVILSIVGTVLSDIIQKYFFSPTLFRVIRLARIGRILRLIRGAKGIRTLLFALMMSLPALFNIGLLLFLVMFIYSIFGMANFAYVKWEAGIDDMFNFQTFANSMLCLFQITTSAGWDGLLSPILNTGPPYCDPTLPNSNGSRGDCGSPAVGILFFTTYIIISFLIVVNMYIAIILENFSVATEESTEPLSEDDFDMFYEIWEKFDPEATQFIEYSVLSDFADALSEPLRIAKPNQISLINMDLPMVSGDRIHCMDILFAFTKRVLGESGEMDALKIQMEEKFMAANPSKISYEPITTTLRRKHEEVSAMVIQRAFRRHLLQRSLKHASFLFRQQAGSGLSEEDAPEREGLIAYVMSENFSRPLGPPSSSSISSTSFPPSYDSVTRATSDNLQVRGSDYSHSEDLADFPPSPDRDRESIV
Outline: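 HEK293 cells stably expressing hNav1.5 alpha subunit without beta subunits, QPatch automated whole-cell clamp at 23-25° C, CsF-based internal solution pH 7.4. Late INa induced by 10 μM tefluthrin; 250 ms steps to −20 mV from −120 mV at 0.1 Hz, compounds at 1 μM. Percent block of mean current 225–250 ms into the step.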

hERG potassium channel = hERG potassium channel (Homo sapiens, UniProt Q12809); assay: hERG screening assay (PatchXpress, CHO cells); format: cell-based; conditions: for HERG*: % inhibition at 1 μM
Chain of hERG potassium channel (Q12809 whole entry): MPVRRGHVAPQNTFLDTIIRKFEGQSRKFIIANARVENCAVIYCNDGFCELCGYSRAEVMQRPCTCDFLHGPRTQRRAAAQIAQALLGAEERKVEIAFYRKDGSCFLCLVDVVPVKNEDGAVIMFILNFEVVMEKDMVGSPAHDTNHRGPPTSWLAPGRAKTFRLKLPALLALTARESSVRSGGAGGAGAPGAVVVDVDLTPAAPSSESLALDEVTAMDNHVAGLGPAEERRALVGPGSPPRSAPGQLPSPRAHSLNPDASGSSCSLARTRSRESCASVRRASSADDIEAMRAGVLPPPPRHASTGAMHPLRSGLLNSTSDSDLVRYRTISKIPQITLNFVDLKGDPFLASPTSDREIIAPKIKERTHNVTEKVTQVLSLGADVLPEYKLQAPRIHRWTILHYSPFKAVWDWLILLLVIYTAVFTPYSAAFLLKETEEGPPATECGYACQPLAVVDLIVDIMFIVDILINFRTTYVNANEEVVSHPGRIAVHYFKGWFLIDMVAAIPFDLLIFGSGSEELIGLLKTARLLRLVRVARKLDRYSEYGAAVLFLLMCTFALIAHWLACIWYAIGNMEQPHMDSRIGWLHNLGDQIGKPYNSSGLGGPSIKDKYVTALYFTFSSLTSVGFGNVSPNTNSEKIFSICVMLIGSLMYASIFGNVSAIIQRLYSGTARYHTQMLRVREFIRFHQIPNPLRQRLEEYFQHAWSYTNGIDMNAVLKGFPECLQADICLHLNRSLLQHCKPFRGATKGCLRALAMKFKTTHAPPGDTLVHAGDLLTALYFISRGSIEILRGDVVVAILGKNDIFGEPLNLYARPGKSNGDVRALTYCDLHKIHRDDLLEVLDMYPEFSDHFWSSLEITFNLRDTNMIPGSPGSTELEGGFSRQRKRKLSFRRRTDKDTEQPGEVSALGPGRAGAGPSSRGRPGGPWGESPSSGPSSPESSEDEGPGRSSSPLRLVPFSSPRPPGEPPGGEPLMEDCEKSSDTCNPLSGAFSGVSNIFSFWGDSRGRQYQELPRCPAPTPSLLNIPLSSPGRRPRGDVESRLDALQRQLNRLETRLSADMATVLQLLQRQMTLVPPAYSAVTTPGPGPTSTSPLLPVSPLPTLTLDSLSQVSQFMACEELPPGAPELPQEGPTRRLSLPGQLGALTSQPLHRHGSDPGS
Description: Compounds were also tested for their effect to block the hERG K^+ channel.
Compounds were screened to test their activity in blocking the hERG potassium channel at AVIVA Biosciences (San Deigo, Calif., USA). The hERG channel is heterologously expressed in a CHO (Chinese Hamster Ovary) cell line. Cells were maintained with standard tissue culture procedures and stable channel expression was maintained with 500 μg/mL G418 in the culture medium. Cells were harvested for testing on the PatchXpress 7000A automated patch clamp with Accumax (Innovative Cell Technologies, San Diego, Calif.) to isolate single cells.
The following solutions were used for electrophysiological recordings. The external solution contained: 2 mM CaCl2; 2 mM MgCl2; 4 mM KCl; 150 mM NaCl; 10 mM Glucose; 10 mM HEPES (pH 7.4 with 1M NaOH; osmolarity, ˜310 mOsm). The internal solution contained: 140 mM KCl, 10 mM MgCl2, 6 mM EGTA, 5 mM HEPES, 5 mM ATP (pH adjusted to 7.25 with KOH; osmolarity, ˜295 mOsm).
hERG channels were activated when the voltage was first stepped to −50 mV for 300 ms from the −80 mV holding potential and then stepped to +20 mV for 5 seconds. At +20 mV the channels open and then largely inactivate, so the currents are relatively small. Upon returning to −50 mV from +20 mV, hERG currents transiently become much larger as inactivation is rapidly removed and then the channel closes. The first step to −50 mV for 300 ms was used as a baseline for measuring the peak amplitude during the step to −50 mV after channel activation. The peak tail current at −50 mV was measured both under control conditions and after addition of compound, each cell serving as its own control.
All compounds were prepared as 10 mM DMSO stocks in glass vials. Stock solutions were mixed by vigorous vortexing and sonication for about 2 minutes at room temperature. For testing, compounds were diluted in glass vials using an intermediate dilution step in pure DMSO and then further diluted to working concentrations in external solution. Dilutions were prepared no longer than 20 minutes before use.
For the electrophysiological recordings, after achieving the whole-cell configuration, cells were monitored for 90 seconds to assess stability and washed with external solution for 66 seconds. The voltage protocol described above was then applied to the cells every 12 seconds and throughout the whole procedure. Only cells with stable recording parameters and meeting specified health criteria were allowed to enter the compound addition procedure.
External solution containing 0.1% DMSO (vehicle) was applied to the cells first to establish the control peak current amplitude. After allowing the current to stabilize for 3 to 5 minutes, 1 μM and then 10 μM test compounds were applied. Each compound concentration was added 4 times and cells were kept in test solution until the effect of the compound reached steady state or for a maximum of 12 minutes. After addition of test compound, a positive control (1 μM Cisapride) was added and must block >95% of the current for the experiment to be considered valid. Washout in the external solution compartment was performed until the recovery of the current reached steady state.

[3] = % inhibition at 1 μM, read-out: NAv1.5*-LATE-
[4] = percent block of late INa, compound at 1 μM, 10 μM Tefluthrin, HEK293 hNav1.5, read-out: Late INa 1 μM

SMILES | MS Human THalf [1] | inhibition at 1 µM [2, 3] | inhibition at 1 µM [2, 4] | HERG* (hERG potassium channel) | inhibition at 10 µM (hERG potassium channel; human, CHO cells that heterologously express the hERG channel, pH 7.4, at 10 μM)
O=C1c2cc(-c3ccc(C(F)(F)F)cc3)ccc2CCN1Cc1ncccn1 [IX-3, 2-(pyrimidin-2-ylmethyl)-7-(4-(trifluoromethyl)phenyl)-3,4-dihydroisoquinolin-1(2H)-one] | 304 min | 29% | 29% | 14% | –
O=c1c2cc(-c3ccc(OC(F)(F)F)cc3)ccc2nnn1C1CCNCC1 [II-38, 3-(piperidin-4-yl)-6-(4-(trifluoromethoxy)phenyl)benzo[d][1,2,3]triazin-4(3H)-one] | > 395 min | 33% | 33% | 58% | –

The next lines start with results.

MS Human THalf [1] | SMILES | inhibition at 1 µM [2, 3] | inhibition at 1 µM [2, 4] | HERG* (hERG potassium channel) | inhibition at 10 µM (hERG potassium channel; human, CHO cells that heterologously express the hERG channel, pH 7.4, at 10 μM)
392 min | O=c1c2cc(-c3ccc(OC(F)(F)F)cc3)ccc2nnn1CCOc1ncccn1 [II-32, 3-(2-(pyrimidin-2-yloxy)ethyl)-6-(4-(trifluoromethoxy)phenyl)benzo[d][1,2,3]triazin-4(3H)-one] | 64% | 64% | 45% | –
280 min | Cc1ncc(Cn2nnc3ccc(-c4ccc(OC(F)(F)F)cc4)cc3c2=O)o1 [II-95, 3-((2-methyloxazol-5-yl)methyl)-6-(4-(trifluoromethoxy)phenyl)benzo[d][1,2,3]triazin-4(3H)-one] | 36% | 36% | <10% | –
336 min | Cc1noc(Cn2nnc3ccc(-c4ccc(OC(F)(F)F)cc4)cc3c2=O)n1 [II-3, 3-((3-methyl-1,2,4-oxadiazol-5-yl)methyl)-6-(4-(trifluoromethoxy)phenyl)benzo[d][1,2,3]triazin-4(3H)-one] | 53% | 53% | 15.5% and 16% | 24.5%
